{
  "source": "patent US20110262442A1",
  "about": "“COMPOSITIONS FOR TREATING CNS DISORDERS” (Adenios, Inc., priority 2009, published 2011)",
  "key": {"[1]": {"test_system": "blood brain barrier", "experiment": "Evans Blue dye extravasation across the blood brain barrier", "format": "in vivo, mice", "conditions": "single i.v. injection 100 μl 0.01 nM, 1 h before dye", "procedure": "The objective of this experiment was to determine if the blood brain barrier could be modulated by activation of adenosine receptors. NECA is a non-selective adenosine receptor agonist, with similar affinities for A1, A2A and A3 adenosine receptors and a low affinity for the A2b adenosine receptor. In order to determine if activation of adenosine receptors would induce extravasation of Evans Blue dye across the blood brain barrier (BBB), mice were treated with: NECA, a non-selective adenosine receptor agonist (n=5, 100 μl 0.01 nM); SCH58261, an A2A adenosine receptor specific antagonist (n=5, 1 mg/kg); pertussis toxin, an agent known to induce BBB leakiness and as such used as a positive control (n=7, 200 μl); and, PBS as a vehicle control (n=5, 100 μl). CD73^−/− mice, which lack the ability to produce extracellular adenosine, were also treated with NECA (n=4, 100 μl 0.01 nM). Treatments were administered as a single i.v. injection one hour prior to i.v. injection of 200 μl 1% Evans Blue dye ([…] total dye injected). Four hours after administration of Evans Blue, mice were anesthetized with a ketamine/xylazine mix and perfused via the left ventricle with ice cold PBS. […] Following extraction, the tissue/solvent mixture was centrifuged at 500×g for 30 minutes and 100 μl of supernatant was read on a BioTex spectrophotometer at 620 nm. Data is expressed as μg Evans Blue/ml DMF."}, "[2]": {"test_system": "blood brain barrier", "experiment": "Fluorimetric analysis of labeled dextrans in brain after i.v. drug administration", "format": "in vivo, mice", "procedure": "C57BL/6 mice from Jackson Laboratories were used as wild types. All mice used were aged 7-9 weeks and weighed between 20-25 g. All rats were aged 8 weeks and weighed 200-220 g. Mice and rats were bred and housed under specific pathogen-free conditions.\nThe adenosine receptor agonists NECA, CCPA and CGS 21860 were purchased from Tocris. Each was dissolved in DMSO then diluted in PBS to the desired concentration; in most cases final DMSO concentrations were <0.5% (vol/vol). For vehicle controls, DMSO was diluted in PBS to the same concentration. Dehydrated dextrans labeled with either FITC or Texas Red were purchased from Invitrogen and re-suspended in PBS to 10 mg ml^−1. All experiments involving dextran injection used 0.5 mg dextran in PBS. In experiments where drug and dextran were injected concomitantly, 0.5 mg of dextran was mixed with the drug to the desired concentration in a final volume of 200 μl. All injections were retro-orbital i.v. with a 27-gauge needle. In the SCH 58261 experiment, groups were administered vehicle or SCH 58261 for 4 d. Vehicle/drug and dextrans were injected on day 5 and tissues were collected 3 h after vehicle/drug administration. In Lexiscan experiments, Lexiscan was administered i.v. with 3 injections, 5 min apart and tissues were collected at 15 min unless otherwise indicated.\nIn dose-response experiments and experiments with the A1 AR and A2A AR knock-out mice, drugs and dextrans were injected concomitantly. After 3 h, the mice were anesthetized with ketamine/xylazine and subjected to a nose cone containing isoflurane. They were perfused with 25-50 ml ice-cold PBS through the left ventricle of the heart then decapitated. Their brains were removed, weighed and frozen for later analysis.\nIce-cold 50 mM Tris-Cl (pH 7.6) was added to frozen brains (100 μl per 100 mg brain) and were to thawed on ice. They were homogenized manually with ˜45 strokes of a dounce homogenizer in plastic 1.5 ml microfuge tubes then spun at 16.1 g in a microfuge for 30 min at room temperature (rt). The supernatants were transferred to new tubes and an equal volume absolute methanol was added. The samples were spun again at 16.1 g for 30 min at rt. Supernatant (200 μl) was transferred to a Corning costar 96 well black polystyrene assay plate (clear bottom). Additionally, a series of standards containing 0.001-10 μg ml^−1 dextran in 50% Tris-Cl/50% absolute methanol (vol/vol) was added to each plate. Absolute concentrations of dextrans were derived from these standard curves. Fluorimetric analysis was performed on a BioTek Synergy 4. FITC-dextran was detected at 488/519 (excitation/emission) and Texas Red-dextran was detected at 592/618."}, "[3]": {"conditions": "WT mice, 3 h after i.v. administration"}},
  "data": [
    {"smiles": "CCNC(=O)[C@H]1O[C@@H](n2cnc3c(N)ncnc32)[C@H](O)[C@@H]1O", "note": "[NECA, 5′-N-ethylcarboxamidoadenosine]", "values": [
      {"measurement": "Evans Blue dye migration across the BBB vs. PBS control", "setting": "[1]; CD73−/− mice", "result": "almost five fold increase"},
      {"measurement": "Evans Blue dye migration across the BBB vs. control mice", "setting": "[1]; WT mice", "result": "increase over control mice"},
      {"measurement": "levels of i.v.-administered 10,000 Da dextrans in brain compared to wild type mice", "setting": "[2]; A1−/− mice, 3 h after i.v. administration", "result": "significantly lower levels"},
      {"measurement": "levels of i.v.-administered 10,000 Da dextrans in brain compared to wild type mice", "setting": "[2]; A2A−/− mice, 3 h after i.v. administration", "result": "significantly lower levels"},
      {"measurement": "time of maximum entry of labeled dextran into the CNS post-treatment", "setting": "[2]; WT mice, 10,000 Da FITC-dextran co-administered with drug at T0", "result": "4 to 6", "unit": "h"},
      {"measurement": "CNS entry of 10,000 Da dextrans compared to vehicle", "setting": "[2]; [3]", "result": "dose-dependent increase"},
      {"measurement": "CNS entry of 70,000 Da dextrans compared to vehicle", "setting": "[2]; [3]", "result": "dose-dependent increase"},
      {"measurement": "time post-treatment by which dextran levels returned to baseline", "setting": "[2]; WT mice, Texas Red-dextran injected after drug, 19.5 h collection time", "result": "≤ 18", "unit": "h"},
      {"measurement": "detectable levels of dextran in the brain at 8 h post-treatment", "setting": "[2]; WT mice, Texas Red-dextran injected at indicated time after drug, 9.5 h collection time", "result": "decreased from the maximum"},
      {"measurement": "dose giving maximum entry of dextrans into the CNS", "setting": "[2]; WT mice, i.v., 100 μl of 25 μM", "result": 0.80, "unit": "µg"}
    ]}
  ]
}
